Laboratory results reported in US20250275965A1, “COMPOUNDS AS CASEIN KINASE INHIBITORS” (GRITSCIENCE BIOPHARMACEUTICALS CO.,LTD., priority 2020, published 2025).

How the values were obtained:
CK1δ = CK1δ (Homo sapiens, UniProt P48730); test: CK1δ kinase assay (Kinase-Glo); assay type: biochemical; conditions: 10 μM ATP, 2 nM wild type kinase, 85 min at 25° C.
Procedure: The reaction mixture was incubated for 85 min at 25° C.; detection was carried out as described for the Kinase-Glo Assay (Promega). Luminescent output was measured on the Perkin Elmer Envision plate reader (PerkinElmer, Waltham, MA).

[1] = Intrinsic clearance in liver microsomes (mouse); assay type: in vitro ADME; conditions: Mouse liver microsomes 0.5 mg/mL, 2 μM compound, 37° C.; for microsomal CLint at 2 μM: read-out: in vitro CLint (μL/min/mg protein); for half-life at 2 μM: read-out: in vitro t1/2
Procedure: (§1) 1. The master solution was prepared according to Table 4.
(§2) 2. Three separated experiments were performed as follows. a) With NADPH: 10 μL of 20 mg/mL liver microsomes and 40 μL of 10 mM NADPH were added to the incubations. The final concentrations of microsomes and NADPH were 0.5 mg/mL and 1 mM, respectively. b) Without NADPH: 10 μL of 20 mg/mL liver microsomes and 40 μL of ultra-pure H2O were added to the incubations. The final concentration of microsomes was 0.5 mg/mL. c) Heat-inactivated microsomes without NADPH: 10 μL of 20 mg/mL heat-inactivated liver microsomes and 40 μL of ultra-pure H2O were added to the incubations. The final concentration of microsomes was 0.5 mg/mL.
(§3) 3. The reaction was started with the addition of 4 μL of 200 μM test compound solution or control compound solution at the final concentration of 2 μM and carried out at 37° C.
(§4) 4. Aliquots of 50 μL were taken from the reaction solution at 0, 15, 30, 45 and 60 min. The reaction was stopped by the addition of 4 volumes of cold acetonitrile with IS (100 nM alprazolam, 200 nM labetalol, 200 nM caffeine and 2 μM ketoprofen). Samples were centrifuged at 3, 220 g for 40 minutes.
(§5) All calculations were carried out using Microsoft Excel.
(§6) Peak areas were determined from extracted ion chromatograms. The slope value, k, was determined by linear regression of the natural logarithm of the remaining percentage of the parent drug vs. incubation time curve.
(§7) The in vitro half-life (in vitro t1/2) was determined from the slope value:
(§8) Conversion of the in vitro t1/2 (min) into the in vitro intrinsic clearance (in vitro CLint, in μL/min/mg protein) was done using the following equation (mean of duplicate determinations): […]

in vitro = conditions: human, Caco-2, pH 7.4
Procedure: 1) 50 μL and 25 mL of cell culture medium were added to each well of the Transwell insert and reservoir, respectively. And then the HTS transwell plates were incubated at 37° C., 5% CO2 for 1 hour before cell seeding.
2) Caco-2 cells were diluted to 6.86×10^5 cells/mL with culture medium and 50 μL of cell suspension were dispensed into the filter well of the 96-well HTS Transwell plate. Cells were cultivated for 14-18 days in a cell culture incubator at 37° C., 5% CO2, 95% relative humidity. Cell culture medium was replaced every other day, beginning no later than 24 hours after initial plating.
10 mM stock solutions of test compounds were prepared in DMSO. The stock solutions of positive controls were prepared in DMSO at the concentration of 10 mM.
1) Medium was removed from the reservoir and each Transwell insert and replaced with prewarmed fresh culture medium.
2) Transepithelial electrical resistance (TEER) across the monolayer was measured using Millicell Epithelial Volt-Ohm measuring system (Millipore, USA).
3) The Plate was returned to the incubator once the measurement was done.
The TEER value was calculated according to the following equation: TEER measurement (ohms)*Area of membrane (cm^2)=TEER value (ohm·cm^2) TEER value should be greater than 230 ohm·cm^2, which indicates the well-qualified Caco-2 monolayer.
1) The Caco-2 plate was removed from the incubator and washed twice with pre-warmed HBSS (10 mM HEPES, pH 7.4), and then incubated at 37° C. for 30 minutes.
2) The stock solutions of control compounds and test compounds were diluted in DMSO to get 1 mM solutions and then diluted with HBSS (10 mM HEPES, pH 7.4) get 5 μM working solutions. The final concentration of DMSO in the incubation system was 0.5%.
3) To determine the rate of drug transport in the apical to basolateral direction. 125 μL of 5 μM working solution of control compound and test compounds were added to the Transwell insert (apical compartment), and transfer 50 μL sample (DO sample) immediately from the apical compartment to a new 96-well plate. Fill the wells in the receiver plate (basolateral compartment) with 235 μL of HBSS (10 mM HEPES, pH 7.4).
4) To determine the rate of drug transport in the basolateral to apical direction. 285 μL of 5 μM working solution of control compound and test compounds were to the receiver plate wells (basolateral compartment), and transfer 50 μL sample (DO sample) immediately from the basolateral compartment to a new 96-well plate. Fill the wells in the Transwell insert (apical compartment) with 75 μL of HBSS (10 mM HEPES, pH 7.4). The assay was performed in duplicate.
5) The plates were incubated at 37° C. for 2 hours.
Samples were Vortexed for 5 minutes and then centrifuged at 3,220 g for 40 minutes. An aliquot of 100 μL of the supernatant was mixed with an appropriate volume of ultra-pure water before LC-MS/MS analysis.
7) To determine the Lucifer Yellow leakage after 2 hour transport period, stock solution of Lucifer yellow was prepared in water and diluted with HBSS (10 mM HEPES, pH 7.4) to reach the final concentration of 100 μM. 100 μL of the Lucifer yellow solution was added to each Transwell insert (apical compartment), followed by filling the wells in the receiver plate (basolateral compartment) with 300 μL of HBSS (10 mM HEPES, pH 7.4). The plates were Incubated at 37° C. for 30 mins. 80 μL samples were removed directly from the apical and basolateral wells (using the basolateral access holes) and transferred to wells of new 96 wells plates. The Lucifer Yellow fluorescence (to monitor monolayer integrity) signal was measured in a fluorescence plate reader at 485 nm excitation and 530 nm emission.
The apparent permeability coefficient (Papp), in units of centimeter per second, can be calculated for Caco-2 drug transport assays using the following equation: […]

[2] = Intrinsic clearance in liver microsomes (human); assay type: in vitro ADME; conditions: Human liver microsomes 0.5 mg/mL, 2 μM compound, 37° C.; for microsomal CLint at 2 μM: read-out: in vitro CLint (μL/min/mg protein); for half-life at 2 μM: read-out: in vitro t1/2
Procedure: as §1, §2, §3, §4, §5, §6, §7, §8

Sequence of CK1δ (P48730 whole entry): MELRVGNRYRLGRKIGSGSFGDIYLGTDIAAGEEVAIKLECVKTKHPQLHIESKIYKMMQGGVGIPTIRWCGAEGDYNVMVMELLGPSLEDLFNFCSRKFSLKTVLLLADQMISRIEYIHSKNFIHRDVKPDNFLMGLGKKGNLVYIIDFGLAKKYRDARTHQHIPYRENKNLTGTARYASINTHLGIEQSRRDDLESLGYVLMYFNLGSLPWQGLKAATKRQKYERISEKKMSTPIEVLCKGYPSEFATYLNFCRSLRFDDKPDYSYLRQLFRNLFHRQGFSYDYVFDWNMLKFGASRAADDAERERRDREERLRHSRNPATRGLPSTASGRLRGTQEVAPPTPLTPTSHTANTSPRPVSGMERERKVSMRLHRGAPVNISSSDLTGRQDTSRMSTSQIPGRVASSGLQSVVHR

| Compound | EC50 (CK1δ) [nM] | microsomal CLint at 2 μM [1] [µL/min/mg] | half-life at 2 μM [1] [h] | Papp A→B at 2 h, 5 μM (in vitro) [×10⁻⁶ cm/s] | Papp B→A at 2 h, 5 μM (in vitro) [×10⁻⁶ cm/s] | efflux ratio at 2 h, 5 μM (in vitro) | microsomal CLint at 2 μM [2] [µL/min/mg] | half-life at 2 μM [2] [h] |
| --- | --- | --- | --- | --- | --- | --- | --- | --- |
| Cn1cc(-c2ccnn3cc(C(N)=O)nc23)c(-c2ccc(F)cc2)n1 [Compound I-15, 8-(3-(4-fluorophenyl)-1-methyl-1H-pyrazol-4-yl)imidazo[1,2-b]pyridazine-2-carboxamide] | 500 | 38.8 | 0.595 | 24.8 | 25.2 | 1.02 | – | – |
| Cn1cc(-c2ccnn3cccc23)c(-c2ccc(F)cc2)n1 [Compound I-9, 4-(3-(4-fluorophenyl)-1-methyl-1H-pyrazol-4-yl)pyrrolo[1,2-b]pyridazine] | 2500 | – | – | – | – | – | – | – |
| CC(=O)Nc1cn2nccc(-c3cn(C)nc3-c3ccc(F)cc3)c2n1 [Compound I-20, N-(8-(3-(4-fluorophenyl)-1-methyl-1H-pyrazol-4-yl)imidazo [1,2-b]pyridazin-2-yl)acetamide] | 2500 | – | – | – | – | – | – | – |
| Cc1cn2nccc(-c3cn(C)nc3-c3ccc(F)cc3)c2n1 [Compound I-4, 8-(3-(4-fluorophenyl)-1-methyl-1H-pyrazol-4-yl)-2-methyli-midazo[1,2-b]pyridazine] | 2700 | – | – | – | – | – | – | – |
| CNc1cn2nccc(-c3cn(C)nc3-c3ccc(F)cc3)c2n1 [Compound I-19, 8-(3-(4-fluorophenyl)-1-methyl-1H-pyrazol-4-yl)-N-methyli-midazo[1,2-b]pyridazin-2-amine] | 25000 | – | – | – | – | – | – | – |
| COC(=O)c1cn2nccc(-c3cn(C)nc3-c3ccc(F)cc3)c2n1 [Compound I-12, methyl 8-(3-(4-fluorophenyl)-1-methyl-1H-pyrazol-4-yl)imidazo[1,2-b]pyridazine-2-carboxylate] | 8600 | – | – | – | – | – | – | – |
| Cn1cc(-c2ccnn3c(N)cnc23)c(-c2ccc(F)cc2)n1 [Compound I-8, 8-(3-(4-fluorophenyl)-1-methyl-1H-pyrazol-4-yl)imidazo[1,2-b]pyridazin-3-amine] | 3300 | – | – | – | – | – | – | – |
| Cn1cc(-c2ccnn3cc(CN)nc23)c(-c2ccc(F)cc2)n1 [Compound I-14] | 200 | 5.9 | 3.92 | 13 | 31.5 | 2.43 | 0.93 | 24.9 |
| CC(=O)N1CCn2nc(-c3ccc(F)cc3)c(-c3ccnc4[nH]ccc34)c2C1 [Compound I-24, 1-(2-(4-fluorophenyl)-3-(1H-pyrrolo[2,3-b]pyridin-4-yl)-6,7-dihydropyrazolo[1,5-a]pyrazin-5(4H)-yl)ethan-1-one] | 800 | 24.7 | 0.935 | 5.28 | 18.4 | 3.49 | 7.47 | 3.09 |
| Cn1cc(-c2ccnn3cc(C(C)(C)O)nc23)c(-c2ccc(F)cc2)n1 [Compound I-17, 2-(8-(3-(4-fluorophenyl)-1-methyl-1H-pyrazol-4-yl)imidazo[1,2-b]pyridazin-2-yl)propan-2-ol] | 400 | 19.1 | 1.21 | 25.3 | 19.4 | 0.77 | 3.25 | 7.11 |
| Cn1cc(-c2ccnn3cc(N)nc23)c(-c2ccc(F)cc2)n1 [Compound I-13, 8-(3-(4-fluorophenyl)-1-methyl-1H-pyrazol-4-yl)imidazo[1,2-b]pyridazin-2-amine] | 2800 | – | – | – | – | – | – | – |
| Cn1cc(-c2ccnc3ccnn23)c(-c2ccc(F)cc2)n1 [Compound I-1, 7-(3-(4-fluorophenyl)-1-methyl-1H-pyrazol-4-yl)pyrazolo[1,5-a]pyrimidine] | 15000 | – | – | – | – | – | – | – |
| CC(=O)NCc1cn2nccc(-c3cn(C)nc3-c3ccc(F)cc3)c2n1 [Compound I-21, N-((8-(3-(4-fluorophenyl)-1-methyl-1H-pyrazol-4-yl)imidazo [1,2-b]pyridazin-2-yl)methyl)acetamide] | 5300 | – | – | – | – | – | – | – |
| CNC(=O)c1cn2nccc(-c3cn(C)nc3-c3ccc(F)cc3)c2n1 [Compound I-16, 8-(3-(4-fluorophenyl)-1-methyl-1H-pyrazol-4-yl)-N-methyli-midazo[1,2-b]pyridazine-2-carboxamide] | 700 | 66.8 | 0.346 | 22.4 | 20.8 | 0.93 | 12.5 | 1.85 |
| Cn1cc(-c2ccnn3cnnc23)c(-c2ccc(F)cc2)n1 [Compound I-10, 8-(3-(4-fluorophenyl)-1-methyl-1H-pyrazol-4-yl)-[1,2,4]triazo-lo[4,3-b]pyridazine] | 7900 | – | – | – | – | – | – | – |
| CNCc1cn2nccc(-c3cn(C)nc3-c3ccc(F)cc3)c2n1 [Compound I-22, 1-(8-(3-(4-fluorophenyl)-1-methyl-1H-pyrazol-4-yl)imidazo[1,2-b]pyridazin-2-yl)-N-methylmethanamine] | 300 | 18.9 | 1.22 | 12.7 | 32.1 | 2.52 | 2.64 | 8.76 |
